Reference: patent publication US20220233542A1, “COMPOSITIONS AND METHODS FOR PREVENTING OR TREATING HUMAN IMMUNODEFICIENCY VIRUS ASSOCIATED PULMONARY ARTERIAL HYPERTENSION” (University of Georgia Research Foundation, priority 2019, published 2022)
Where “and” joins values, the source holds several entries; their conditions need not be identical. Equal values may be shown once. Entries after “also recorded” stand apart in the source; their conditions may differ.

How the values were obtained:
[1] = system: CCR7−CD163−CD206+ BALF macrophages; experiment: Flow cytometry of BALF macrophages; type: in vivo, Macaca mulatta; conditions: Groups 2 and 3 at 6 mpi compared to both PAH+ and PAH− SIV/Untreated controls
Source text: (§1) Among cytokine signatures associated with the SIV-PAH, MIP-1α, TNF-α, and TGF-β have been previously associated with macrophage populations that promote fibrosis. At 6 mpi, SIV-PAH^+ animals had higher numbers of peripheral blood CD14^dimCD16^+ non-classical monocytes (FIG. 14A, p=0.06) and CCR7^−CD163^−CD206^+ BALF macrophages (FIG. 14C, p=0.04) compared to SIV-PAH^− controls. Moreover, increased numbers of CD14^dimCD16^+ non-classical monocytes (FIG. 14B, left panel, p=0.04) and CD14^+ CCR7^−CD163^−CD206^+ macrophages (FIG. 14D, left panel, p=0.03) correlate with increased pulmonary pressures in SIV/Uninfected controls at 6 mpi. Given the pleiotropic effects of statin upon monocyte and macrophage skewing and cytokine secretion, it was hypothesized that statins may decrease these populations which are associated with SIV-PAH.
(§2) Animals. […] Study Design and Statin treatment. […] Hemodynamic measurements through right hearth catheterization. […] Flow Cytometry. […] Cytokine measurement in plasma and BALF. […] Whole slide images were acquired by Servicebio (Woburn, Mass.). […]

[2] = system: small pulmonary arteries collagen deposition; experiment: Lung periarteriolar collagen deposition (Picro-Sirius Red); type: in vivo, Macaca mulatta
[3] = system: SIV-infected rhesus macaques; experiment: SIV-PAH model, hemodynamics by serial right heart catheterization; type: in vivo, Macaca mulatta; conditions: for Incidence PAH ≥ 25 mm Hg 6-12 mpi: number of animals of n = 14; for Prevalence of PAH (% PAH+): n = 14, untreated 52.2
Procedure: To determine the effect of statin treatment on PAH, SIV-infected rhesus macaques were studied. More specifically, a non-human primate (NHP) model of HIV-associated PAH that closely mimics HIV-PAH using simian immunodeficiency virus (SIV)-infected rhesus macaques (Macaca mulatta) was used. […] Moreover, the histologic and hemodynamic manifestations of SIV-PAH closely approximate those of human PAH.
Hemodynamics were measured by serial right heart catheterizations at baseline (BL), 6 months post-infection (6 mpi), and at the end of study (10-12 mpi) (FIG. 11C, 11D). In contrast to untreated controls (Untreated/SIV Group 1), 14.3% (Table 5, 2 of 14, P=0.03) of statin-treated animals (SIV/Statin Group 2) developed elevated mean pulmonary arterial pressure (mPAP) (monkey 3316 at 25.4 mm Hg and monkey 2416 at 46.3 mm Hg) at 6 mpi (FIG. 1). Of these animals, one maintained slightly elevated mPAP until the end of the study (monkey 3316, terminal mPAP=25.7). At study termination, mPAP of monkey 2416 decreased to 21.2 mm Hg.
It was further tested whether statin treatment initiated following SIV infection could modify PAH incidence or progression (FIG. 11A, SIV/Statin Group 3; Table 6). In this cohort, 1 of 14 monkeys (Table 2, 7.1%, P=0.0097) developed PAH (animal 2916; 6 mpi mPAP=45.5) at 6 mpi.
as §2

SIVΔB670 = experiment: Plasma viral load throughout SIV infection; type: in vivo, simian immunodeficiency virus (SIV)
Source text: Therefore, peripheral blood CD4^+ T cell levels and plasma viral load throughout SIV infection were examined.
Animals. 28 adult Chinese rhesus macaques (Macaca mulatta) aged 6-10 years old were obtained from national primate centers or vendors and housed in accordance with the NIH Guide for the Care and Use of Laboratory Animals in a BSL2^+ primate facility at the University of Georgia (National Research Council Committee for the Update of the Guide for the Care and Use of Laboratory Animals, Guide for the Care and Use of Laboratory Animals (8th ed.) (National Academies Press National Academy of Sciences., 2011). Prior to admission to the study, all animals were screened and found negative for simian retroviruses and preexisting cardiovascular disease. Study Design and Statin treatment. All cohorts were infected with SIVΔB670 (1:100 in PBS), tissue culture infectious dose of 50% (TCID50)=2.6×10^5), intravenously or mucosally as previously described (Tarantelli et al. (2018); Schweitzer, F. et al. (2019)). […] All procedures were approved by the University of Georgia Institutional Animal Care and Use Committee. Hemodynamic measurements through right hearth catheterization. Right heart catheterization was performed and analyzed using a Swan-Ganz balloon wedge pressure catheter advanced through the right atrium, right ventricle, and pulmonary artery as previously described (Tarantelli et al). Flow Cytometry. Peripheral blood and bronchoalveolar lavage fluid (BALF) were collected at baseline (BL), 6 months post infection (mpi) and at study termination (10-12 mpi), and processed for flow cytometry as previously described (Board, K. F. et al. Experimental Pneumocystis carinii pneumonia in simian immunodeficiency virus-infected rhesus macaques. The Journal of infectious diseases 187, 576-588 (2003) and Kling, H. M. et al. Relationship of Pneumocystis jiroveci humoral immunity to prevention of colonization and chronic obstructive pulmonary disease in a primate model of HIV infection. Infection and immunity 78, 4320-4330 (2010)). CD14^dimCD16^+ non-classical monocytes and CCR7^−CD163^−CD206^+ BALF macrophages were identified by flow cytometry and calculated as previously described by Schweitzer, F. et al., supra). All analyses were performed using FlowJo Analysis software (Tree Star, Inc., Ashland, Oreg.). Cytokine measurement in plasma and BALF. Quantitative analysis of cytokines and chemokines in the plasma and BALF was performed using the Cytokine 29-Plex Monkey Panel (Invitrogen, Carlsbad, Calif.) according to the manufacturer's instructions. BALF analytes were normalized on the assumption that plasma and BALF have equal urea concentrations as previously described, using Quanti Chrom Urea Assay Kit (BioAssay Systems, Destin, Fla.) (Schweitzer, F. et al., supra). Histopathology and quantification of right ventricular and lung periarteriolar collagen deposition. 5 μm thick FFPE sections of the right heart and lung were cut and stained with Masson's trichrome and 0.1% Pico Sirius Red counterstained with Weigert's hematoxylin, to reveal fibrillar collagen, respectively by the UGA CVM Histopoathology Laboratory (Athens, Ga.). […] To quantify right ventricular collagen deposition in Masson's trichrome stained sections, 170 mm^2 regions were analyzed using Image J software (imagej.nih.gov/ij), with the threshold color plugin set to RGB; bright blue collagen was selected, converted to a binary image, and measured to quantify the collagen area. […]

TGF-β = experiment: Cytokine measurement in BALF (Cytokine 29-Plex Monkey Panel); type: in vivo, Macaca mulatta; conditions: both statin-treated cohorts compared to PAH+ and PAH− SIV/Untreated controls
Source text: To determine if statin treatment could modify these inflammatory mediators associated with SIV-PAH, cytokine profiles in the statin-treated cohorts were compared.
Animals. 28 adult Chinese rhesus macaques (Macaca mulatta) aged 6-10 years old were obtained from national primate centers or vendors and housed in accordance with the NIH Guide for the Care and Use of Laboratory Animals in a BSL2^+ primate facility at the University of Georgia (National Research Council Committee for the Update of the Guide for the Care and Use of Laboratory Animals, Guide for the Care and Use of Laboratory Animals (8th ed.) (National Academies Press National Academy of Sciences., 2011). Prior to admission to the study, all animals were screened and found negative for simian retroviruses and preexisting cardiovascular disease. Study Design and Statin treatment. All cohorts were infected with SIVΔB670 (1:100 in PBS), tissue culture infectious dose of 50% (TCID50)=2.6×10^5), intravenously or mucosally as previously described (Tarantelli et al. (2018); Schweitzer, F. et al. (2019)). […] All procedures were approved by the University of Georgia Institutional Animal Care and Use Committee. […] Quantitative analysis of cytokines and chemokines in the plasma and BALF was performed using the Cytokine 29-Plex Monkey Panel (Invitrogen, Carlsbad, Calif.) according to the manufacturer's instructions. […]

[4] = system: CD14dimCD16+ non-classical monocytes; experiment: Flow cytometry of peripheral blood monocytes; type: in vivo, Macaca mulatta; conditions: both statin cohorts at 6 mpi compared to SIV-PAH+ controls
Source text: as §1, §2

[5] = system: right ventricle collagen deposition; experiment: Right ventricular collagen deposition (Masson's trichrome); type: in vivo, Macaca mulatta
Source text: Moreover, increases in collagen deposition within the right ventricle (FIG. 15B, P=0.004; FIG. 15C) and small pulmonary arteries (FIG. 15D, P=0.0005) correlated with increased pulmonary pressures in SIV/Uninfected controls. Given the substantial dampening of pro-fibrotic immune phenotypes that occurs with statin treatment, right ventricular and lung periarteriolar collagen deposition were examined following statin treatment.
as §2

[6] = statin-treated cohorts compared with SIV-PAH− controls
[7] = SIV/Statin Group 2, individual animals
[8] = SIV/Statin Group 3, individual animals

For CC(C)c1c(C(=O)Nc2ccccc2)c(-c2ccccc2)c(-c2ccc(F)cc2)n1CC[C@@H](O)C[C@@H](O)CC(=O)O [atorvastatin], the “number of CCR7−CD163−CD206+ BALF macrophages” value [1] was “significantly reduced”, the “small pulmonary arteries collagen deposition” value ([2]; statin-treated cohorts compared to SIV-PAH+) was “significantly less collagen deposition” and the lung collagen deposition [2, 6] was “considerably less collagen deposition”. The “PAH Status” value [3, 7] was “PAH− (PAH is defined as mPAP≥25 mm Hg); also recorded: PAH+ (PAH is defined as mPAP≥25 mm Hg)”, the “Peak mPAP (mm Hg)” value [3, 7] was 15.2 mm Hg and 46.3 mm Hg and 23.2 mm Hg (2×) and 25.7 mm Hg and 19.2 mm Hg and 17.6 mm Hg and 20.2 mm Hg and 17.4 mm Hg and 16.6 mm Hg and 17.1 mm Hg and 22.0 mm Hg and 20.6 mm Hg and 20.7 mm Hg and the “Incidence PAH ≥ 25 mm Hg 6-12 mpi” value ([3]; SIV/Statin Group 2: atorvastatin 10 mg/day orally from 1 week prior to SIV infection) was 2. The “Prevalence of PAH (% PAH+)” value ([3]; SIV/Statin Group 2: atorvastatin from 1 week prior to SIV infection) was 14.3%, the “Prevalence of PAH (% PAH+)” value ([3]; SIV/Statin Group 2: atorvastatin from 1 week prior to SIV infection, listed as Statin) was 14.3% and the “mPAP at 6 mpi of animals that developed elevated mPAP” value ([3]; SIV/Statin Group 2, monkey 3316 and monkey 2416) was 25.4 mm Hg and 46.3 mm Hg. For the same molecule, the “terminal mPAP of animals that developed elevated mPAP” value ([3]; SIV/Statin Group 2, monkey 3316 and monkey 2416, study termination) was 25.7 mm Hg and 21.2 mm Hg, the “PAH Status” value [3, 8] was “PAH− (PAH is defined as mPAP≥25 mm Hg); also recorded: PAH+ (PAH is defined as mPAP≥25 mm Hg)” and the “Peak mPAP (mm Hg)” value [3, 8] was 21.4 mm Hg and 16.8 mm Hg and 13.2 mm Hg and 23.6 mm Hg and 45.5 mm Hg and 22.9 mm Hg and 24.1 mm Hg and 18.9 mm Hg and 20.2 mm Hg and 19.8 mm Hg and 24.4 mm Hg and 19.9 mm Hg. The “Incidence PAH ≥ 25 mm Hg 6-12 mpi” value ([3]; SIV/Statin Group 3: atorvastatin 10 mg/day orally from 4 months following SIV infection) was 1, the “Prevalence of PAH (% PAH+)” value ([3]; SIV/Statin Group 3: atorvastatin from 4 months following SIV infection) was 7.1% and the “Prevalence of PAH (% PAH+)” value ([3]; SIV/Statin Group 3: atorvastatin from 4 months following SIV infection, listed as Statin) was 7.1%. The “6 mpi mPAP of the animal that developed PAH” value ([3]; SIV/Statin Group 3, animal 2916) was 45.5, the “incidence of PAH” value ([3]; treatment initiated during the early chronic disease stage) was “reduced incidence of PAH compared to untreated animals” and the “development of SIV-associated PAH” value ([3]; treatment of healthy macaques prior to and throughout SIV infection) was “prevented the development of SIV-associated PAH”. For the same molecule, the “Peak viral load (no. of RNA copies/mL)” value (SIVΔB670; [7]) was 8.1 × 10^6 RNA copies/mL and 7.9 × 10^6 RNA copies/mL and 1.6 × 10^7 RNA copies/mL and 1.3 × 10^7 RNA copies/mL and 7.3 × 10^6 RNA copies/mL and 1.7 × 10^7 RNA copies/mL and 1.8 × 10^7 RNA copies/mL and 4.9 × 10^7 RNA copies/mL and 1.1 × 10^7 RNA copies/mL and 9.3 × 10^6 RNA copies/mL and 3.7 × 10^7 RNA copies/mL and 5.0 × 10^7 RNA copies/mL and 1.0 × 10^7 RNA copies/mL and 5.0 × 10^6 RNA copies/mL, the “Viral set point (no. of RNA copies/mL)” value (SIVΔB670; [7]) was 3.0 × 10^4 RNA copies/mL and 6.1 × 10^3 RNA copies/mL and 1.8 × 10^6 RNA copies/mL and 1.7 × 10^6 RNA copies/mL (2×) and 9.9 × 10^5 RNA copies/mL and 2.7 × 10^5 RNA copies/mL and 1.3 × 10^4 RNA copies/mL and 8.8 × 10^4 RNA copies/mL and 3.5 × 10^5 RNA copies/mL and 4.6 × 10^4 RNA copies/mL and 2.9 × 10^6 RNA copies/mL and 1.4 × 10^5 RNA copies/mL and 1.2 × 10^5 RNA copies/mL and the “Peak viral load (no. of RNA copies/mL)” value (SIVΔB670; SIV/Statin Group 3 (treatment started 4 months following infection), individual animals) was 2.4 × 10^7 RNA copies/mL and 1.6 × 10^7 RNA copies/mL and 1.2 × 10^7 RNA copies/mL and 4.7 × 10^7 RNA copies/mL and 4.3 × 10^7 RNA copies/mL and 2.2 × 10^7 RNA copies/mL and 1.0 × 10^6 RNA copies/mL and 8.4 × 10^5 RNA copies/mL and 8.3 × 10^6 RNA copies/mL and 7.3 × 10^6 RNA copies/mL and 9.6 × 10^6 RNA copies/mL and 8.8 × 10^6 RNA copies/mL and 2.9 × 10^7 RNA copies/mL and 5.8 × 10^6 RNA copies/mL. The “Viral set point (no. of RNA copies/mL)” value (SIVΔB670; [8]) was 1.4 × 10^5 RNA copies/mL and 4.1 × 10^3 RNA copies/mL and 1.1 × 10^6 RNA copies/mL and 7.8 × 10^2 RNA copies/mL and 1.4 × 10^6 RNA copies/mL and 1.2 × 10^7 RNA copies/mL and 1.5 × 10^4 RNA copies/mL and 3.0 × 10^2 RNA copies/mL and 1.1 × 10^5 RNA copies/mL and 1.8 × 10^6 RNA copies/mL and 4.4 × 10^5 RNA copies/mL and 2.8 × 10^3 RNA copies/mL and 4.0 × 10^5 RNA copies/mL and 9.0 × 10^3 RNA copies/mL, the “viral load compared to SIV/Untreated controls” value (SIVΔB670; both statin-treated cohorts, throughout SIV infection) was “did not significantly alter; also recorded: does not significantly affect” and the “levels of BALF TGF-β at 6 mpi” value (TGF-β) was “significantly lower”. For the same molecule, the “number of CD14dimCD16+ non-classical monocytes” value [4] was “significantly lower”, the “right ventricle collagen deposition” value ([5]; both statin-treated cohorts compared to SIV-PAH+) was “significantly less collagen deposition” and the “right ventricle collagen deposition” value [5, 6] was “considerably less collagen deposition”.
